In test [1] the target is T1, μ-opioid receptor (Homo sapiens (Human), UniProt P35372). Kind of test: μ-opioid receptor radioligand binding assay ([3H]-diprenorphine). The conditions noted are these: binding affinity. The protocol: μ-Opioid Receptor Binding Assay Procedures: Radioligand dose-displacement binding assays for μ-opioid receptors used 0.3 nM [^3H]-diprenorphine (Perkin Elmer, Shelton, Conn.), with […] membrane protein/well in a final volume of 500 μl binding buffer (10 mM MgCl2, 1 mM EDTA, 5% DMSO, 50 mM HEPES, pH 7.4). Reactions were carried out in the absence or presence of increasing concentrations of unlabeled naloxone. All reactions were conducted in 96-deep well polypropylene plates for 2 hours at room temperature. Binding reactions were terminated by rapid filtration onto 96-well Unifilter GF/C filter plates (Perkin Elmer, Shelton, Conn.), presoaked in 0.5% polyethylenimine using a 96-well tissue harvester (Perkin Elmer, Shelton, Conn.) followed by performing three filtration washes with 500 μl of ice-cold binding buffer. Filter plates were subsequently dried at 50° C. for 2-3 hours. BetaScint scintillation cocktail (Perkin Elmer, Shelton, Conn.) was added (50 μl/well), and plates were counted using a Packard Top-Count for 1 min/well. The data were analyzed using the one-site competition curve fitting functions in GraphPad PRISM™ v. 3.0 or higher (San Diego, Calif.), or an in-house function for one-site competition curve-fitting.

In the next test the target is δ-opioid receptor (Homo sapiens (Human), UniProt P41143). The test is described as follows: δ-opioid receptor [35S]GTPγS functional assay (Table 4). Type of test: biochemical. The protocol:
δ-Opioid Receptor Functional Assay Procedures: Functional [^35S]GTPγS binding assays were conducted as follows. δ opioid receptor membrane solution was prepared by sequentially adding final concentrations of 0.026 μg/μl δ membrane protein (Perkin Elmer, Shelton, Conn.), 10 μg/mL saponin, 3 μM GDP and 0.20 nM [^35S]GTPγS to binding buffer (100 mM NaCl, 10 mM MgCl2, 20 mM HEPES, pH 7.4) on ice. The prepared membrane solution (190 μl/well) was transferred to 96-shallow well polypropylene plates containing 10 μl of 20× concentrated stock solutions of agonist prepared in DMSO. Plates were incubated for 30 min at a temperature of about 25° C. with shaking Reactions were terminated by rapid filtration onto 96-well Unifilter GF/B filter plates (Perkin Elmer, Shelton, Conn.) using a 96-well tissue harvester (Packard) and followed by three filtration washes with 200 μl ice-cold binding buffer (10 mM NaH2PO4, 10 mM Na2HPO4, pH 7.4). Filter plates were subsequently dried at 50° C. for 1-2 hours. Fifty μl/well scintillation cocktail (Perkin Elmer, Shelton, Conn.) was added and plates were counted in a Packard Top-count for 1 min/well.
δ GTP Emax (%) is the maximal effect elicited by a compound relative to the effect elicited by met-enkephalin.

The target of test [2] is human opioid receptor-like receptor (ORL-1) (Homo sapiens (Human), UniProt P41146). Kind of test: ORL-1 receptor radioligand binding assay ([3H]-nociceptin). The conditions noted are these: binding affinity, bound given in μM, read-out: Ki ORL-1. The protocol: ORL-1 Receptor Binding Assay Procedure: Membranes from recombinant HEK-293 cells expressing the human opioid receptor-like receptor (ORL-1) (Perkin Elmer, Shelton, Conn.) was prepared by lysing cells in ice-cold hypotonic buffer (2.5 mM MgCl2, 50 mM HEPES, pH 7.4) (10 ml/10 cm dish) followed by homogenization with a tissue grinder/Teflon pestle. Membranes were collected by centrifugation at 30,000×g for 15 min at 4° C. and pellets resuspended in hypotonic buffer to a final concentration of 1-3 mg/ml. Protein concentrations were determined using the BioRad protein assay reagent with bovine serum albumen as standard. Aliquots of the ORL-1 receptor membranes were stored at −80° C.
Radioligand binding assays (screening and dose-displacement) use 0.1 nM [^3H]-nociceptin (Perkin Elmer, Shelton, Conn.; 87.7 Ci/mmole) with 12 μg membrane protein in a final volume of 500 μl binding buffer (10 mM MgCl2, 1 mM EDTA, 5% DMSO, 50 mM HEPES, pH 7.4). Non-specific binding was determined in the presence of […] unlabeled nociceptin (American Peptide Company). […] Fifty μl/well scintillation cocktail (Perkin Elmer, Shelton, Conn.) was added and plates are counted in a Packard Top-Count for 1 min/well. The data from screening and dose-displacement experiments were analyzed using Microsoft Excel and the curve fitting functions in GraphPad PRISM™, v. […]

In test [3] the target is T1, μ-opioid receptor. Kind of test: μ-opioid receptor [35S]GTPγS functional assay, U-2 OS cells (Table 5). Type of test: biochemical. The method in brief: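 Membranes (0.026 mg/mL) from cells expressing recombinant human μ-opioid receptor in a U-2 OS background were incubated with 0.20 nM [35S]GTPγS, 3 mM GDP and saponin in 20 mM HEPES pH 7.4, 100 mM NaCl, 10 mM MgCl2 for 30 min at about 25 °C. Filter-bound radioactivity counted; sigmoidal dose-response fits gave values, Emax relative to DAMGO.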

δ-opioid receptor, sequence (P41143 whole entry, looked up): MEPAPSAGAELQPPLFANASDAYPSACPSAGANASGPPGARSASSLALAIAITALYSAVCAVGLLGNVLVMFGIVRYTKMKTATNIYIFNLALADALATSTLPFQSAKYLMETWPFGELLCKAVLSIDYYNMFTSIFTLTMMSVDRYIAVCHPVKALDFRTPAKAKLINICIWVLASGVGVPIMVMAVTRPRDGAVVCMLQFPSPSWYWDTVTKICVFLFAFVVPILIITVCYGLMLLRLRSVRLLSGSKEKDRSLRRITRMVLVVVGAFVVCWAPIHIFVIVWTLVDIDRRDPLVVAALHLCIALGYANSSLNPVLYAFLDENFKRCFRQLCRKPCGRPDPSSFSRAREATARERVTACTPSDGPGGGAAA

For `NC(=O)[C@@H]1C[C@]23CCN(CC4CC4)[C@H](Cc4ccc(O)cc42)[C@]3(O)C1` [Compound 31, (2R,3aS,4R,9bS)-12-(cyclopropylmethyl)-3a,8-dihydroxy-1,2,3,3a,4,5-hexahydro-4,9b-(epiminoethano)cyclopenta-[a]naphthalene-2-carboxamide], the Ki at μ-opioid receptor [1] is 10.2 ± 3.58 nM; in test [2], above 20 µM. In addition, the maximum response (Emax) on δ-opioid receptor (relative to met-enkephalin) was 32 ± 3.49%; on μ-opioid receptor [3] (relative to DAMGO) it was 49 ± 3.76%. Moreover, the concentration giving a half-maximal response (EC50) came to 75.5 ± 13.6 nM on δ-opioid receptor (δ GTP) and 2.35 ± 0.32 nM on μ-opioid receptor [3] (μ GTP).

Source of the values: US9656962B2, “Ring-contracted morphinans and the use thereof” (Purdue Pharma L.P., priority 2013, dated 2017).
